Experimental data reported in the supplement of paper PMC10307832.

What follows are cell lines tested with CN1CCN(CC1)C2=CC(=C(C=C2)NC3=NC=C4C(=N3)N(C5=CC=CC=C5C(=O)N4C)C)OC [XMD8-85] + CC(C)C[C@H](NC(=O)[C@H](Cc1ccccc1)NC(=O)c1cnccn1)B(O)O [Bortezomib] (partner 0.002 µM) (assay: relative viability (nuclei count vs DMSO), 5 days (fraction); higher = more cells survive). Settings: first compound 0.08 µM.
Procedure, shortened: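 Relative viability equals treated-well nuclei counts divided by vehicle-well nuclei counts. Counts came from 4× images of lung cancer cell lines grown in 1536-well plates for 5 days after pin-tool dosing on the day after seeding. Dosing used one drug alone or a fixed anchor-drug dose plus five library-drug doses (not always all listed) in √10 steps, and values are medians of duplicate plates.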

| Cell Line | relative viability |
| --- | --- |
| LOU-NH91 | 0.448 |
| LU99A | 1.11 |
| LXF-289 | 0.977 |
| NCI-H23 | 0.977 |
| NCI-H322M | 1.36 |
| NCI-H441 | 0.509 |
| NCI-H460 | 0.924 |
| NCI-H520 | 0.491 |
| NCI-H596 | 0.838 |
| NCI-H647 | 1.15 |
| NCI-H650 | 0.778 |
| NCI-H661 | 0.732 |
| NCI-H727 | 0.64 |
| NCI-H838 | 0.714 |
| NCI-H1355 | 1.28 |
| NCI-H1437 | 0.497 |

| Cell Line | relative viability |
| --- | --- |
| NCI-H1650 | 0.26 |
| NCI-H1651 | 1.08 |
| NCI-H1666 | 0.831 |
| NCI-H1734 | 0.808 |
| NCI-H1755 | 0.97 |
| NCI-H1915 | 0.67 |
| NCI-H1975 | 0.443 |
| NCI-H1993 | 0.965 |
| NCI-H2009 | 0.98 |
| NCI-H2023 | 0.881 |
| NCI-H2085 | 0.92 |
| NCI-H2087 | 0.827 |
| NCI-H2126 | 1.04 |
| NCI-H2347 | 1.2 |
| NCI-H2405 | 1.01 |
| NCI-H3122 | 1.11 |

Same assay, conditions: first compound 0.253 µM

| Cell Line | relative viability |
| --- | --- |
| LOU-NH91 | 0.466 |
| LU99A | 1.21 |
| LXF-289 | 0.999 |
| NCI-H23 | 0.836 |
| NCI-H322M | 1.22 |
| NCI-H441 | 0.442 |
| NCI-H460 | 0.999 |
| NCI-H520 | 0.51 |
| NCI-H596 | 0.903 |
| NCI-H647 | 0.778 |
| NCI-H650 | 0.855 |
| NCI-H661 | 0.927 |
| NCI-H727 | 0.727 |
| NCI-H838 | 0.696 |
| NCI-H1355 | 1.26 |
| NCI-H1437 | 0.443 |

| Cell Line | relative viability |
| --- | --- |
| NCI-H1650 | 0.197 |
| NCI-H1651 | 0.946 |
| NCI-H1666 | 0.754 |
| NCI-H1734 | 0.936 |
| NCI-H1755 | 1.14 |
| NCI-H1915 | 0.923 |
| NCI-H1975 | 0.36 |
| NCI-H1993 | 0.958 |
| NCI-H2009 | 0.931 |
| NCI-H2023 | 0.992 |
| NCI-H2085 | 1.03 |
| NCI-H2087 | 0.869 |
| NCI-H2126 | 1.13 |
| NCI-H2347 | 1.09 |
| NCI-H2405 | 0.983 |
| NCI-H3122 | 1.02 |

Same assay, conditions: first compound 0.8 µM

| Cell Line | relative viability |
| --- | --- |
| LOU-NH91 | 0.488 |
| LU99A | 1.18 |
| LXF-289 | 0.97 |
| NCI-H23 | 1.09 |
| NCI-H322M | 1.3 |
| NCI-H441 | 0.392 |
| NCI-H460 | 1.2 |
| NCI-H520 | 0.772 |
| NCI-H596 | 1.22 |
| NCI-H647 | 1.13 |
| NCI-H650 | 0.854 |
| NCI-H727 | 1.34 |
| NCI-H838 | 1.02 |
| NCI-H1355 | 1.13 |
| NCI-H1437 | 0.438 |
| NCI-H1650 | 0.192 |
| NCI-H1651 | 0.882 |
| NCI-H1666 | 0.745 |
| NCI-H1734 | 0.917 |
| NCI-H1755 | 0.918 |
| NCI-H1915 | 0.942 |
| NCI-H1975 | 0.378 |
| NCI-H1993 | 1.08 |
| NCI-H2009 | 1.16 |
| NCI-H2023 | 1.07 |
| NCI-H2085 | 1.18 |
| NCI-H2126 | 1.18 |
| NCI-H2347 | 0.824 |
| NCI-H2405 | 0.975 |
| NCI-H3122 | 1.05 |

Same assay, conditions: first compound 2.53 µM

| Cell Line | relative viability |
| --- | --- |
| LOU-NH91 | 0.489 |
| LU99A | 1.23 |
| LXF-289 | 1.04 |
| NCI-H23 | 1.21 |
| NCI-H322M | 1.46 |
| NCI-H441 | 0.581 |
| NCI-H460 | 0.956 |
| NCI-H520 | 0.507 |
| NCI-H596 | 1.09 |
| NCI-H647 | 0.924 |
| NCI-H650 | 0.858 |
| NCI-H661 | 0.802 |
| NCI-H727 | 1.3 |
| NCI-H838 | 0.892 |
| NCI-H1355 | 1.21 |
| NCI-H1437 | 0.541 |

| Cell Line | relative viability |
| --- | --- |
| NCI-H1650 | 0.173 |
| NCI-H1651 | 0.903 |
| NCI-H1666 | 0.735 |
| NCI-H1734 | 1.03 |
| NCI-H1755 | 1.06 |
| NCI-H1915 | 0.986 |
| NCI-H1975 | 0.297 |
| NCI-H1993 | 1.29 |
| NCI-H2009 | 0.988 |
| NCI-H2023 | 1.13 |
| NCI-H2085 | 0.95 |
| NCI-H2087 | 1.11 |
| NCI-H2126 | 1.15 |
| NCI-H2347 | 0.921 |
| NCI-H2405 | 1.02 |
| NCI-H3122 | 1.05 |

Same assay, conditions: first compound 8 µM

| Cell Line | relative viability |
| --- | --- |
| LOU-NH91 | 0.4 |
| LU99A | 1 |
| LXF-289 | 0.978 |
| NCI-H23 | 0.853 |
| NCI-H322M | 1.04 |
| NCI-H441 | 0.367 |
| NCI-H460 | 0.75 |
| NCI-H520 | 0.205 |
| NCI-H596 | 0.899 |
| NCI-H647 | 0.515 |
| NCI-H650 | 0.27 |
| NCI-H661 | 0.728 |
| NCI-H727 | 0.452 |
| NCI-H838 | 0.489 |
| NCI-H1355 | 1.11 |
| NCI-H1437 | 0.378 |
| NCI-H1650 | 0.179 |
| NCI-H1651 | 0.875 |
| NCI-H1734 | 0.649 |
| NCI-H1755 | 0.806 |
| NCI-H1915 | 0.945 |
| NCI-H1975 | 0.222 |
| NCI-H1993 | 1.07 |
| NCI-H2009 | 0.352 |
| NCI-H2023 | 0.575 |
| NCI-H2087 | 0.729 |
| NCI-H2126 | 1.12 |
| NCI-H2347 | 0.407 |
| NCI-H2405 | 0.927 |
